This is an account of results in patent US11672786B2, “Methods of treating diseases associated with repeat instability” (The Hospital for Sick Children, priority 2016, dated 2023).

Where “and” joins values, the source holds several entries; their conditions need not be identical. Equal entries are not always repeated.

The test system of one series is single CAG slip-out. Put plainly: in vitro repair assay by HeLa cell extracts, single repeat slip-out. Format: biochemical, human. From the text: Panel A of […] is a schematic of the in vitro repair assay. Starting DNAs and repair products released the repeat-containing fragment, which is resolved on PAGE and assessed on a molar level by Southern blotting and densitometry. Repair of different DNA substrates containing a long (CAG)20 slip-out (Panel B of FIG. 3) long (CTG)20 slip-out (Panel C of FIG. 3), a single CAG slip-out (Panel D of FIG. 3) or a single G-T mismatch (Panel E of FIG. 3), in the absence or in the presence of NA. Slipped-DNA substrates were prepared from hybrids of (CAG)50●(CTG)30, (CAG)30●(CTG)50 or of (CAG)50●(CTG)49. Repair of the G-T mismatch reconstitutes a HindIII restriction site, as shown schematically. Graphs show percentage repair efficiencies to repaired product relative to all repeat-containing fragments in the lane, values are normalized to the NA-free efficiency. […]
To determine how the binding of NA to slipped DNA structures affects repair, a series of circular slipped heteroduplex substrates was made with an excess of repeats with a nick located either 5′ or 3′ of the slip-out (FIG. 3). […] All these substrates were processed in […] by HeLa extracts and then were assessed for repair. Repair products were analyzed by Southern blotting, probed for the repeat-containing fragment, and compared with starting material, which permitted quantitative assessment of repair efficiency at a molar level. […]

For series [1], the system named is HT1080-(CAG)850 cells. Put plainly: cell toxicity, WST-1 assay. Particulars: treated with NA for 72 hr. Here is the method: Scale bar represents 20 μm.
The construction of the HT1080-(CAG)850 cell model was described previously (Sathasivam et al., 1997, Hum. Genet., 99:692-5). Briefly, HT1080 (ATCC) human fibrosarcoma cells were co-transfected with a plasmid (LC15-R) containing 800-850 (CTG)●(CAG) repeats (Nakatani et al., 2005, Nat. Chem. Biol., 1:39-43) and a plasmid encoding PhiC31 integrase. Transfection was performed with a Nucleofector (Lonza, Basel, Switzerland), and stably transfected clones were selected with puromycin. The HT1080-non transcribing (CAG)850 cell model was established by transfecting a plasmid modified from pLC16 by adding a SV40 polyadenylation signal downstream of the repeats, instead of LC15-R. The HT1080-non-transcribing (CAG)850 cell model was established by transfecting a plasmid modified from pLC16 by inserting an additional SV40 polyadenylation signal downstream of the repeats (in addition to the original polyadenylation signals located upstream of the repeats), so that CAG/CTG repeats are floxed by transcription-terminator elements. The AttB-PhiC31 system has been widely used for single copy integration. […]
For orientation: Tetrazolium assays rely on reduction of a dye to a coloured formazan, in cell work by metabolically active cells.

A further series has as its system mouse striatum. Put plainly: histological study of mouse striatum, H&E staining. The format is in vivo. The note with it: NA in saline injected into striatum.
For series [2], the system named is HT1080-(CAG)850 cells. The experiment in a line: small-pool PCR repeat instability, proliferating HT1080-(CAG)850 cells producing rCAG transcript. Format: cell-based, human. The note with it: 30 days; for % Contraction / % Expansion: cut-off ±25 repeats. Here is the method: The construction of the HT1080-(CAG)850 cell model was described previously (Sathasivam et al., 1997, Hum. Genet., 99:692-5). Briefly, HT1080 (ATCC) human fibrosarcoma cells were co-transfected with a plasmid (LC15-R) containing 800-850 (CTG)●(CAG) repeats (Nakatani et al., 2005, Nat. Chem. Biol., 1:39-43) and a plasmid encoding PhiC31 integrase. Transfection was performed with a Nucleofector (Lonza, Basel, Switzerland), and stably transfected clones were selected with puromycin. The HT1080-non-transcribing (CAG)850 cell model was established by transfecting a plasmid modified from pLC16 by inserting an additional SV40 polyadenylation signal downstream of the repeats (in addition to the original polyadenylation signals located upstream of the repeats), so that CAG/CTG repeats are floxed by transcription-terminator elements. The AttB-PhiC31 system has been widely used for single copy integration. […] The HT1080 model cells and an HD primary fibroblast cell line, GM09197 (Coriell Biorepository) with a large expanded allele of 180 CAG repeats and a non-expanded allele of 23 repeats (Sathasivam et al., 1997, Hum. Genet., 99:[…]), the HD primary fibroblast cell line, GM02191 (Coreill Biorepository) with an expanded allele of 43 CAG repeats and a non-expanded allele of 19 repeats, were cultured at 37° C. with 5% CO2 in Dulbecco's modified Eagle's medium supplemented with 10% fetal bovine serum and 1% penicillin/streptomycin. Cells were treated with or without continuous exposure to 50-μM NA for 30 days (HT1080 cells) or for 40 days (fibroblast cells). For experiments on non-proliferating cells, HT1080 cells were grown to confluence and then treated for the same period. WST-1 assay was performed according to the manufacturer's instructions (Roche, Basel, Switzerland). All cell lines were tested to be free of Mycoplasma. Three biological replicates were performed for each experiment.
Genomic DNA was extracted from HT1080-(CAG)850 clones and HD primary fibroblasts using the Gentra Puregene Cell Kit (Qiagen, Valencia, Calif.). The expanded (CTG)●(CAG) repeats were sized by small-pool PCR (sp-PCR) followed by Southern blot as described previously (Sathasivam et al., 1997, Hum. Genet., 99:692-5). For HT1080 models, small-pool PCR (spPCR) was performed with the input of 1.4-1.7 genome equivalents. The repeat size difference in the models is, at most, 3000 base-pairs, therefore, being strictly conservative, a bias toward amplifying the shorter allele can be possible, even under optimized PCR conditions described herein. For HD primary fibroblasts, sp-PCR & Southern blots were performed as described previously with slight modifications (Tome et al., 2013, PLoS Genet., 9:e1003280). Briefly, the PCR primers listed in Table 1 were used, and blots were hybridized with a DIG-labeled (CAG)7 locked nucleic acid probe (Nakamori et al. 2009, Neuromuscul. Disord., 19:759-62). At least 50 alleles were analyzed for each of the three experiments (more than 150 alleles for a total study). Repeat analyses are summarized in Table 2, compiled from complete small-pool-PCR datasets for each repetition of each experiment. For the histograms in FIGS. 4D, 4E, 10, 11, 5B, 5D, 5E, 14 and 15B, the Y-axis, “% of repeat population” was calculated by determining the proportion of >50 individual small-pool PCR reactions across the CAG repeat tract, that harbored a certain size of repeat product with a certain length. Cell clones were grown 30 or 40 days with or without NA (see, for example, Sathasivam et al., 1997, Hum. Genet., 99:692-5). Specifically, the histograms of repeat length distributions were from at least two different cell clones. Length distributions were determined as follows: Small-pool PCR followed by Southern blot for analysis of CAG/CTG repeat length.

The mark [3] stands for this setting: 50 uM NA, Total of 3 experiments.
Where [4] appears, read: 50 uM NA, single experiments Ex 1-3.

For the substance naphthyridine-azaquinolone, the “effect on repair of a single repeat CAG or CTG slip-out” value in the series with single CAG slip-out was “unaffected”. Further, in the series with HT1080-(CAG)850 cells [1], the “acute cytotoxicity (cell viability, WST-1)” value is listed as “without causing acute cytotoxicity”. Besides, the brain morphology result with mouse striatum is given as “did not alter brain morphology”. The “magnitude of repeat units lost (greatest)” value in the series on HT1080-(CAG)850 cells [2] (50 μM NA) was no more than 790 repeats. Moreover, in the series on HT1080-(CAG)850 cells [2] (setting [3]), the “% Unchanged” value came out at 26.7%, the “% Contraction” value came to 59.4% and the “% Expansion” value is recorded as 13.9%. The “Average Change of Repeat Size” value in the series on HT1080-(CAG)850 cells [2] (50 uM NA, Total of 3 experiments, all alleles) is on record as −125.7 number of repeats. Besides, in the series on HT1080-(CAG)850 cells [2] (setting [4]), the “% Unchanged” value was 28.4% and 27.4% and 23.7%; the “% Contraction” value was 56.8% and 60.0% and 61.0%; the “% Expansion” value was 14.8% and 11.3% and 15.2%.
